# How the values were obtained:
# [1] = system: mammary tumors; conditions: NMU administered at 55 days of age; cited from earlier work
# [2] = system: NMU-induced tumorigenesis in mammary glands; test: Prophylaxis of NMU-induced mammary tumorigenesis by intraductal injection; type: in vivo, Sprague Dawley rats; conditions: rats given NMU 50 mg/kg i.v. after treatment, monitored 8 months
# Description: The mammary glands (6 on each side) of six virgin 50 day old Sprague Dawley rats were injected with AdHS-tk on the left side and trypan blue on the right side or left untreated. One rat remained completely untreated with the virus or GCV and served as a positive control for NMU-induced tumorigenesis. On the day of surgery, rats were given an intramuscular injection of 5 μg estradiol valerate and were anesthetized with an isofluorane/O2 mixture. The nipples were cannulated with a 33 gauge needle. Twenty μl of AdHS-tk diluted in trypan blue carrier (1 mM MgCl2, 20 μg/ml polybrene in 10% glycerol, 0.4% trypan blue in saline) at a concentration of 5×10^7 particles/μl were injected into the duct. Carrier control mammary glands received 20 μl of trypan blue carrier alone. An animal was considered treated when at least three glands were successfully injected with trypan blue and another three glands were successfully injected with AdHS-tk. The remaining glands were left untreated. Twelve hrs later, the rats were injected with 125 mg/kg body weight GCV twice daily for three days. […] Five to seven days after GCV treatment, the rats were given an intravenous injection of NMU dissolved in 0.05% acetic acid (Ash Stevens, CO; 50 mg NMU/kg body weight) and were subsequently monitored for general health and the appearance of tumors at weekly intervals for 8 months.
# [3] = system: ductal carcinoma in situ, MNU-induced tumor formation; test: MNU-induced tumor formation rat model, teat infusion of anticancer agents; type: in vivo, Sprague Dawley rats; conditions: for incidence of tumor mass formation: within 6 months of MNU-injection; for rats with no visible masses or mammary lesions at necropsy: necropsy Day 180±2
# Description: The objective of this study was to evaluate the efficacy of five test articles (four marketed anticancer agents), administered directly into the mammary gland ducts via teat infusion, for therapy and prevention of ductal carcinoma in situ in an N-Nitroso-N-Methylurea (MNU)-induced tumor formation rat model. Based upon previous animal studies, candidates were selected for more rigorous evaluation at B Braun Biological Test Center (BTC) in Irvine, Calif. This facility was chosen to continue the preclinical work, started by Dr. Sukumar at JHU in order to support studies with a larger number of animals, in compliance with Good Laboratory Practices.
# The agents were tested in 120 female Sprague Dawley rats (n=20 per treatment). On Day 1, each rat was injected intraperitoneally with MNU to induce tumor formation. […] Rats were weighed prior to MNU injection, prior to intra-ductal infusion, and once weekly throughout the study.
# Rats were observed twice daily for mortality/morbidity and 1-3 times weekly for general appearance, stool appearance, signs of toxicity, and palpable mass formation until death or euthanasia. […] At necropsy, organs and tissues were grossly observed, and the entire bilateral mammary gland system, visible masses, and abnormal tissues were collected and retained in formalin.
# [4] = Pharmacokinetic analysis of venous blood after intraductal administration; type: in vivo, women; conditions: intraductal carboplatin
# Description: (§1) The study was performed in Cancer Hospital, Chinese Academy of Medical Sciences, Beijing, China where the standard of care includes a long preoperative hospital stay prior to mastectomy. Two drugs, pegylated liposomal doxorubicin (PLD) and carboplatin (C) were administered at 3 dose levels (PLD: 10, 20, 50 mg and carboplatin 60, 120, 300 mg) with the highest dose approximating the clinical intravenous dose. There were five subjects in each group with 15 subjects treated with each drug once. After informed consent, under local anesthesia subjects underwent cannulation of 5-8 ducts with intraductal instillation of the drug. Venous blood samples were obtained for pharmacokinetic analysis. The total dosage was divided by the number of cannulated ducts to yield a dose per duct. The breast was removed surgically as planned 2-5 days post treatment and the treated ducts were marked to enable identification on pathological evaluation. Intraductal administration was generally well-tolerated with mild, transient breast discomfort upon administration associated with the rate of infusion. Clinically significant laboratory adverse events were limited to decreases in hemoglobin following mastectomy, consistent with blood loss. […] In the carboplatin arm, three women at the 300 mg dose experienced mild nausea and vomiting.
# [5] = Dose escalation study of intraductal cytotoxic drugs in women prior to mastectomy, safety; type: in vivo; conditions: 300 mg dose, five subjects per group
# Description: as §1
smiles,measurement,setting,value
"CN(N=O)C(N)=O [NMU, N-Nitroso-N-Methylurea]",female rats that develop mammary tumors,[1],90-100%
"Nc1nc(O)c2ncn(COC(CO)CO)c2n1 [No injection; Ganciclovir, Ganciclovir]",% of Glands with Tumor,[2],25.0%
same,No. of Tumors,[2],5
"CC(=O)O[C@H]1C(=O)[C@@]2(C)[C@H]([C@H](OC(=O)c3ccccc3)[C@]3(O)C[C@H](OC(=O)[C@H](O)[C@@H](NC(=O)c4ccccc4)c4ccccc4)C(C)=C1C3(C)C)[C@]1(OC(C)=O)CO[C@@H]1C[C@@H]2O [Taxol®, paclitaxel]",incidence of palpable masses during the course of the study,[3]; 0.15 mg/teat,highest and most rapid
same,number of rats with masses at final observations prior to death or euthanasia,[3]; 0.15 mg/teat intraductal on Day 15,20 of 20
same,rats with visible masses at necropsy,"[3]; 0.15 mg/teat, necropsied 4 months post-MNU injection, 20 rats",20 rats
same,incidence of tumor mass formation,[3]; 0.15 mg/teat,highest incidence of mass formation
N.N.O=C([O-])C1(C(=O)[O-])CCC1.[Pt+2] [carboplatin],plasma ultrafiltrate AUC (area under the curve),[4],consistent with the Calvert Formula using estimated GFR
same,peak time (tmax),[4]; systemic circulation,~30 min
same,mild nausea and vomiting,[5],three
same,rats with no visible masses or mammary lesions at necropsy,[3]; 0.42 mg/teat,5 of 20
same,incidence of palpable masses during the course of the study,[3]; 0.75 mg/teat,lowest and least rapid
same,number of rats with masses at final observations prior to death or euthanasia,[3]; 0.75 mg/teat intraductal on Day 15,11 of 20
same,rats with no visible masses or mammary lesions at necropsy,[3]; 0.75 mg/teat,7 of 19
same,incidence of tumor mass formation,[3]; 0.75 mg/teat,lowest incidence of tumor mass formation

# Source: patent US20130046171A1, “DEVICE AND METHOD FOR ACCESSING AND TREATING DUCTS OF MAMMARY GLANDS” (priority 2008, published 2013)
